Data as given in patent US20230000812A1, “IBUPROFEN ESTER PRODRUG, PHARMACEUTICAL COMPOSITION, PREPARATION METHOD AND APPLICATION” (NANJING HERON PHARMACEUTICAL SCIENCE AND TECHNOLOGY CO., …, priority 2020, published 2023).
Read-outs that look alike come from different tables or passages of the source.

Columns and labels:
[1] = In vitro human plasma metabolism (enzymolysis kinetics test in human plasma); conditions: for metabolic rate (hydrolysis rate) in human plasma: 0-120 min, FIG. 1 and 2; for degradation rate of the peaks in human plasma: liquid chromatograms, FIG. 3-5
Method: The test scheme was as follows.
The test method was as follows:
(§2) (1) a stock solution of Compound NX (where X represents a different compound number) of the present application in pure acetonitrile (40 mM) was prepared, a stock solution of flurbiprofen axetil in pure acetonitrile (40 mM) was prepared, and a stock solution of ibuprofen in pure acetonitrile (40 mM) was prepared.
(§3) (2) the stock solution of flurbiprofen axetil/ibuprofen (25 μL) was mixed with 1 mL of human plasma and vortexed for 30 s. A sample (200 μL) was taken, added with 800 μL of acetonitrile to precipitate proteins and vortexed for 1 min, and the reaction was stopped as a flurbiprofen axetil/ibuprofen control; and the stock solution of the compound of the present application (40 mM) and the stock solution of flurbiprofen axetil (40 mM) were diluted 200 times separately as prodrug controls;
(§4) (4) the stock solution of the compound of the present application in pure acetonitrile (100 μL) and the stock solution of flurbiprofen axetil in pure acetonitrile (100 μL) were mixed with 4 mL of human plasma, separately, vortexed for 30 s, and placed in an oscillating constant temperature water bath heater at 37° C. and oscillated at 200 rpm;
(§5) (6) the samples were centrifuged at 12000 rpm for 10 min at 4° C., the supernatant was taken and injected at a volume of 30 μL (through a filter membrane), and changes of a peak area were recorded;

[2] = human, 0.98 mM; for Amount of Active Metabolites Produced (%): 120 min; for Remaining Amount of the Prodrug Compound (%): plasma, 2 h
Method: The test scheme was as follows.
The test method was as follows:
as §2, §3, §4, §5

[3] = Stability of dextrorotatory enantiomers in solvents (MCT, soybean oil, phosphate buffer of Tween 80) at 80° C.; type: physicochemical; conditions: for purity of the isomer: oil phase or water phase; for purity of the isomer / related substances in the oil phase / content of the related substance in the water phase: 10 days
Method: Samples were placed at 80° C., and samples were taken on Day 0, 5, and 10 to determine the purity of the compounds and changes of the related substance (ibuprofen) and an isomer (levorotatory).
4.2 Determination of the related substance in accordance with high-performance liquid chromatography (Chinese Pharmacopoeia 2015 Edition General Rules 0512)
(1) Chromatographic conditions: Chromatographic column: Agilent ZORBAX SB-C8, 4.6 mm×250 mm, 5 μm; mobile phase: 0.1% phosphoric acid solution-acetonitrile (50:50); detection wavelength: 220 nm; flowrate: 1.0 mL per minute; column temperature: 40° C.
(§1) (2) Determination method: An appropriate amount of the substance was taken, accurately weighed, added with a diluent [anhydrous ethanol], shaken to be dissolved, quantitatively diluted into a solution of about 0.4 mg/mL, and vortexed for 30s. The solution was filtered with a PTFE filter membrane (0.22 μm, Jinteng) and the filtrate was used as the test solution, 10 μL was accurately measured into a liquid chromatograph and the chromatogram was recorded. In the chromatogram of the test solution, if there were impurity peaks, the results should be obtained by calculation according to a peak area normalization method.
4.3 Determination of the isomer in accordance with high-performance liquid chromatography (Chinese Pharmacopoeia 2015 Edition General Rules 0512)
as §1, with “Determination” for “(2) Determination”, “isomer” for “substance”, “[n-hexane-isopropanol (90:10)],” for “[anhydrous ethanol],”, “1.0” for “0.4”, “isomer” for “impurity”

[4] = Pharmacokinetics in rats after tail vein injection (Test Example 4); conditions: rat, in vivo
Method: The whole blood was centrifuged at 8000 rpm for 5 min, and plasma samples were taken and stored at −80° C., separately.
Preparation of test solutions: the test solutions were administered through tail veins of rats at a volume of […].

[5] = Phosphate buffer of Tween 80, 80° C., Day 0
[6] = Phosphate buffer of Tween 80, 80° C., Day 5
[7] = Phosphate buffer of Tween 80, 80° C., Day 10

CC(C)Cc1ccc([C@H](C)C(=O)OC(C)OC(=O)OC(C)C)cc1 (stereo partly drawn) [Compound N2S]
metabolic rate (hydrolysis rate) in human plasma ([1]; human plasma): relatively slow metabolic rates
Remaining Amount of the Prodrug Compound (%) ([1]; human plasma, 37° C., 120 min): 78.6 ± 2.6%
degradation rate of the peaks in human plasma [1]: relatively slow degradation rate

CC(C)Cc1ccc(C(C)C(=O)OC(C)OC(=O)OC(C)C)cc1 (stereo not drawn) [Compound N2]
Amount of Active Metabolites Produced (%) [2]: 10.7 ± 0.4%
Remaining Amount of the Prodrug Compound (%) [2]: 87.4 ± 5.3%

CCOC(=O)OC(C)OC(=O)[C@@H](C)c1ccc(CC(C)C)cc1 (stereo partly drawn) [Compound N6S]
Ibuprofen (%) ([3]; MCT, 80° C., Day 0): 0.03%
Isomer (%) ([3]; MCT, 80° C., Day 0): 3.26%
Purity of related Main Peak (%) ([3]; MCT, 80° C., Day 0): 99.89%
Ibuprofen (%) ([3]; MCT, 80° C., Day 5): 0.05%
Isomer (%) ([3]; MCT, 80° C., Day 5): 3.47%
Purity of related Main Peak (%) ([3]; MCT, 80° C., Day 5): 99.88%
Ibuprofen (%) ([3]; MCT, 80° C., Day 10): 0.06%
Isomer (%) ([3]; MCT, 80° C., Day 10): 3.45%
Purity of related Main Peak (%) ([3]; MCT, 80° C., Day 10): 99.87%
Ibuprofen (%) [3, 5]: 2.42%
Isomer (%) [3, 5]: 3.68%
Purity of related Main Peak (%) [3, 5]: 97.56%
Ibuprofen (%) [3, 6]: 10.24%
Isomer (%) [3, 6]: 3.97%
Purity of related Main Peak (%) [3, 6]: 89.66%
Ibuprofen (%) [3, 7]: 16.98%
Isomer (%) [3, 7]: 3.88%
Purity of related Main Peak (%) [3, 7]: 82.73%
Ibuprofen (%) ([3]; Soybean oil, 80° C., Day 0): 0.03%
Isomer (%) ([3]; Soybean oil, 80° C., Day 0): 3.26%
Purity of related Main Peak (%) ([3]; Soybean oil, 80° C., Day 0): 99.84%
Ibuprofen (%) ([3]; Soybean oil, 80° C., Day 5): 0.08%
Isomer (%) ([3]; Soybean oil, 80° C., Day 5): 3.21%
Purity of related Main Peak (%) ([3]; Soybean oil, 80° C., Day 5): 99.79%
Ibuprofen (%) ([3]; Soybean oil, 80° C., Day 10): 0.16%
Isomer (%) ([3]; Soybean oil, 80° C., Day 10): 3.20%
Purity of related Main Peak (%) ([3]; Soybean oil, 80° C., Day 10): 99.47%
purity of the isomer ([3]; 80° C.): remains basically unchanged
related substances in the oil phase ([3]; 80° C.): remain basically unchanged
content of the related substance in the water phase ([3]; 80° C.): increases
metabolic rate (hydrolysis rate) in human plasma ([1]; human plasma): relatively fast metabolic rates close to that of S-FPA
Remaining Amount of the Prodrug Compound (%) ([1]; human plasma, 37° C., 120 min): 40.5 ± 1.6%

CCOC(=O)OC(C)OC(=O)C(C)c1ccc(CC(C)C)cc1 (stereo not drawn) [Compound N6]
Remaining Amount of the Prodrug Compound (%) [2]: 58.96 ± 3.1%

CCOC(=O)OC(CC)OC(=O)[C@@H](C)c1ccc(CC(C)C)cc1 (stereo partly drawn) [Compound N9S]
Isomer (%) ([3]; MCT, 80° C., Day 0): 0.95%
Purity of related Main Peak (%) ([3]; MCT, 80° C., Day 0): 99.80%
Ibuprofen (%) ([3]; MCT, 80° C., Day 5): 0.02%
Isomer (%) ([3]; MCT, 80° C., Day 5): 0.95%
Purity of related Main Peak (%) ([3]; MCT, 80° C., Day 5): 99.78%
Ibuprofen (%) ([3]; MCT, 80° C., Day 10): 0.04%
Isomer (%) ([3]; MCT, 80° C., Day 10): 0.94%
Purity of related Main Peak (%) ([3]; MCT, 80° C., Day 10): 99.66%
Ibuprofen (%) [3, 5]: 0.63%
Isomer (%) [3, 5]: 0.86%
Purity of related Main Peak (%) [3, 5]: 99.03%
Ibuprofen (%) [3, 6]: 5.27%
Isomer (%) [3, 6]: 1.19%
Purity of related Main Peak (%) [3, 6]: 92.78%
Ibuprofen (%) [3, 7]: 8.76%
Isomer (%) [3, 7]: 1.78%
Purity of related Main Peak (%) [3, 7]: 87.97%
Isomer (%) ([3]; Soybean oil, 80° C., Day 0): 0.91%
Purity of related Main Peak (%) ([3]; Soybean oil, 80° C., Day 0): 99.85%
Ibuprofen (%) ([3]; Soybean oil, 80° C., Day 5): 0.09%
Isomer (%) ([3]; Soybean oil, 80° C., Day 5): 0.90%
Purity of related Main Peak (%) ([3]; Soybean oil, 80° C., Day 5): 99.57%
Ibuprofen (%) ([3]; Soybean oil, 80° C., Day 10): 0.13%
Isomer (%) ([3]; Soybean oil, 80° C., Day 10): 0.97%
Purity of related Main Peak (%) ([3]; Soybean oil, 80° C., Day 10): 99.38%
purity of the isomer ([3]; 80° C.): remains basically unchanged
related substances in the oil phase ([3]; 80° C.): remain basically unchanged
content of the related substance in the water phase ([3]; 80° C.): increases
metabolic rate (hydrolysis rate) in human plasma ([1]; human plasma): relatively fast metabolic rates close to that of S-FPA
Remaining Amount of the Prodrug Compound (%) ([1]; human plasma, 37° C., 120 min): 45.0 ± 2.1%

CCOC(=O)OC(CC)OC(=O)C(C)c1ccc(CC(C)C)cc1 (stereo not drawn) [Compound N9]
AUC0-t compared with dexibuprofen salt solution directly injected [4]: no significant difference
Amount of Active Metabolites Produced (%) [2]: 20.3 ± 0.8%
Remaining Amount of the Prodrug Compound (%) [2]: 62.5 ± 1.3%

CCC(OC(=O)OC(C)C)OC(=O)[C@@H](C)c1ccc(CC(C)C)cc1 (stereo partly drawn) [Compound N10S]
metabolic rate (hydrolysis rate) in human plasma ([1]; human plasma): relatively slow metabolic rates

CC(=O)OC(C)OC(=O)C(C)c1ccc(-c2ccccc2)c(F)c1 (stereo not drawn) [FPA, flurbiprofen axetil, reference compound]
Remaining Amount of the Prodrug Compound (%) [1]: 50.9 ± 2.5%

CCOC(=O)O[C@H](C)OC(=O)[C@@H](C)c1ccc(CC(C)C)cc1 [N6(S)-1]
degradation rate of the peaks in human plasma [1]: different degradation rates

CCOC(=O)O[C@@H](C)OC(=O)[C@@H](C)c1ccc(CC(C)C)cc1 [N6(S)-2]
degradation rate of the peaks in human plasma [1]: different degradation rates

CCOC(=O)O[C@@H](CC)OC(=O)[C@@H](C)c1ccc(CC(C)C)cc1 [N9(S)-2]
degradation rate of the peaks in human plasma [1]: different degradation rates

CC(=O)OC(C)OC(=O)[C@@H](C)c1ccc(-c2ccccc2)c(F)c1 (stereo partly drawn) [S-FPA, reference compound]
Amount of Active Metabolites Produced (%) ([1]; human plasma, 37° C., 120 min): 44.3 ± 2.3%
Remaining Amount of the Prodrug Compound (%) ([1]; human plasma, 37° C., 120 min): 37.4 ± 1.9%
